What was measured:
human orexin 2 receptors = human orexin 2 receptors (Homo sapiens (Human), UniProt O43614); experiment: Calcium Accumulation in Cells (FLIPR), antagonism of orexin A; type: cell-based; details: for inhibition at 10 µM: measured at a concentration of 10 μM of compound, read-out: FLIPR hOx2R % inhibition value; for Ki: antagonism of orexin A, Cheng-Prusoff corrected, read-out: FLIPR hOx2R Ki
Experimental: (§1) Calcium Accumulation in Cells (FLIPR):
Cells expressing human orexin 1 or human orexin 2 receptors, were seeded at 8,000 cells/well in 384 well black-walled clear bottom, poly-D-lysine coated plates.
On the day of the experiment, the cells seeded in black plates were treated with assay buffer containing the Ca^2+ sensitive fluorescent dye Fluo4-AM (2 μM), and probenecid (0.1 mM). After 1 h plates were washed twice with, and resuspended in, assay buffer containing probenecid (0.1 mM) using a multi plate washer. […] Fluorescence measurements were then continued every 1 S for 120 S followed by every 4 S for 240 S.
(§2) The measurements were typically made in two sequences:
(§3) In the first round, compounds of formula (I) or (I′) were tested alone, to detect possible agonist activity. Compounds of formula I or I′ were tested usually in a concentration range from 10^−9 M to 10^−5 M.
(§4) In the second round, performed one hour later (to allow for equilibration), Orexin A was tested either in the absence (calibration curves, Orexin A agonist controls) or in the presence of compounds of formula (I) or (I′) to determine antagonism.

human orexin 1 receptors = human orexin 1 receptors (Homo sapiens (Human), UniProt O43613); experiment: as above; type: cell-based; details: for inhibition at 10 µM: measured at a concentration of 10 μM of compound, read-out: FLIPR hOx1R % inhibition value; for Ki: antagonism of orexin A, Cheng-Prusoff corrected, read-out: FLIPR hOx1R Ki
Chain of human orexin 1 receptors (O43613 whole entry): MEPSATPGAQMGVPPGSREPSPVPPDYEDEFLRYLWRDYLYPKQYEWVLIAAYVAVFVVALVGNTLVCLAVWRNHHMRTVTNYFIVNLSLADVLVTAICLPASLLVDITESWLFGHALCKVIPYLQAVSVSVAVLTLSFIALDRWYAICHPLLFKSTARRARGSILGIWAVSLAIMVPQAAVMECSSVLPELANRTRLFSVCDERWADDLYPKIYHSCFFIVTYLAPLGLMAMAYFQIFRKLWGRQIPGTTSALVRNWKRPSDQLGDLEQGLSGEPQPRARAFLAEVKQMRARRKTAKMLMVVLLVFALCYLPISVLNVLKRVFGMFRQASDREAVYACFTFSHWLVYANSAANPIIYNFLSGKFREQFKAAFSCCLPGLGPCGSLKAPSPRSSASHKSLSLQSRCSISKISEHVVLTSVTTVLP
Experimental: as §1
Cells expressing human orexin 1 or human orexin 2 receptors, were seeded at 8,000 cells/well in 384 well black-walled clear bottom, poly-D-lysine coated plates. After 24 h, the medium was removed and cells were washed once with phosphate buffered saline and serum-deprived overnight in assay buffer (130 mM NaCl, 5.4 mM KCl, 1.8 mM CaCl2, 0.8 mM MgSO4, 0.9 mM NaH2PO4, 25 mM glucose, 20 mM HEPES, pH 7.4) containing bovine serum albumin (1% w/v).
On the day of the experiment, the cells seeded in black plates were treated with assay buffer containing the Ca^2+ sensitive fluorescent dye Fluo4-AM (2 μM), and probenecid (0.1 mM). After 1 h plates were washed twice with, and resuspended in, assay buffer containing probenecid (0.1 mM) using a multi plate washer. The plates were placed into a FLIPR II (Fluorometric Imaging Plate Reader, Molecular Devices, Sunnyvale, Calif., USA) and baseline fluorescence (fluorescence light units, FLU) was measured (5 measurements, 2 S each; laser excitation 488 nm at 0.6-1 W, CCD camera exposure 0.4 s) before addition of buffer alone (basal) or containing test compounds (either compound of formula (I) or (I′) alone, agonist alone or agonist in the presence of various concentrations of compounds of formula (I) or (I′)). Fluorescence measurements were then continued every 1 S for 120 S followed by every 4 S for 240 S.
as §2, §3, §4

Chain of human orexin 2 receptors (O43614 whole entry): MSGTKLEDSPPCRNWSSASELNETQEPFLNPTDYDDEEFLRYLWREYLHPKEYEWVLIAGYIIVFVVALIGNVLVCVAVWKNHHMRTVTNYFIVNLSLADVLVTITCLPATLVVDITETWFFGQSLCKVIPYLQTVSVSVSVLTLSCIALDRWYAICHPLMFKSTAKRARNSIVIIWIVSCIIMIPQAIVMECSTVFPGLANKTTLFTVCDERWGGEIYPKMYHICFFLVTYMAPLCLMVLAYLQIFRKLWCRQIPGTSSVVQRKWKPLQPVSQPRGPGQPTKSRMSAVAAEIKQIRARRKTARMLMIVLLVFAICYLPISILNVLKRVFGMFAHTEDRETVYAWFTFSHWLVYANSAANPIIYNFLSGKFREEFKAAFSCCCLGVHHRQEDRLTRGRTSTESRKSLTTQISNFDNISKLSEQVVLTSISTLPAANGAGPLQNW

SMILES | inhibition at 10 µM (human orexin 2 receptors) [%] | inhibition at 10 µM (human orexin 1 receptors) [%] | Ki (human orexin 1 receptors) [nM] | Ki (human orexin 2 receptors) [nM]
CCn1cnnc1C(C)NC(=O)COc1cc(C(F)(F)F)c2c(-c3ccccc3)nn(C)c2n1 (stereo not drawn) [Example 1.35, N-(1-(4-ethyl-4H-1,2,4-triazol-3-yl)ethyl)-2-(1-methyl-3-phenyl-4-(trifluoromethyl)-1H-pyrazolo[3,4-b]pyridin-6-yloxy)acetamide] | 22 | 22 |  | 
CC(C)c1noc(C(C)NC(=O)COc2cc(C(F)(F)F)c3c(-c4ccccc4)nn(C)c3n2)n1 (stereo not drawn) [Example 1.36, N-(1-(3-isopropyl-1,2,4-oxadiazol-5-yl)ethyl)-2-(1-methyl-3-phenyl-4-(trifluoromethyl)-1H-pyrazolo[3,4-b]pyridin-6-yloxy)acetamide] | 30 |  | 3360 | 
C[C@H](NC(=O)COc1cc(C(F)(F)F)c2c(C(C)(C)C)nn(C)c2n1)c1ccccc1 [Example 1.37, (S)-2-(3-tert-butyl-1-methyl-4-(trifluoromethyl)-1H-pyrazolo[3,4-b]pyridin-6-yloxy)-N-(1-phenylethyl)acetamide] |  |  | 1950 | 298
Cc1nc(C(C)NC(=O)COc2cc(C(F)(F)F)c3c(-c4ccccc4)nn(C)c3n2)c(C)s1 (stereo not drawn) [Example 1.40, N-(1-(2,5-dimethylthiazol-4-yl)ethyl)-2-(1-methyl-3-phenyl-4-(trifluoromethyl)-1H-pyrazolo[3,4-b]pyridin-6-yloxy)acetamide] |  | 37 |  | 2900
Cn1nc(-c2ccccc2)c2c(C(F)(F)F)cc(OCC(=O)NCc3ccccc3F)nc21 [Example 1.42, N-(2-fluorobenzyl)-2-(1-methyl-3-phenyl-4-(trifluoromethyl)-1H-pyrazolo[3,4-b]pyridin-6-yloxy)acetamide] |  |  | 1590 | 890
Cn1nc(-c2ccccc2)c2c(C(F)(F)F)cc(OCC(=O)NCc3cccc(Cl)c3)nc21 [Example 1.43, N-(3-chlorobenzyl)-2-(1-methyl-3-phenyl-4-(trifluoromethyl)-1H-pyrazolo[3,4-b]pyridin-6-yloxy)acetamide] |  | 24 |  | 2060
COc1ccccc1C(C)NC(=O)COc1cc(C(F)(F)F)c2c(-c3ccccc3)nn(C)c2n1 (stereo not drawn) [Example 1.44, N-(1-(2-methoxyphenyl)ethyl)-2-(1-methyl-3-phenyl-4-(trifluoromethyl)-1H-pyrazolo[3,4-b]pyridin-6-yloxy)acetamide] |  |  | 274 | 158
C[C@H](NC(=O)COc1cc(C2CC2)c2c(-c3ccccc3)nn(C)c2n1)c1ccccc1 [Example 1.47, (S)-2-(4-cyclopropyl-1-methyl-3-phenyl-1H-pyrazolo[3,4-b]pyridin-6-yloxy)-N-(1-phenylethyl)acetamide] |  |  | 441 | 561
C[C@H](NC(=O)COc1cc(C(F)(F)F)c2c(C3CC3)nn(C)c2n1)c1ccccc1 [Example 1.50, (S)-2-(3-cyclopropyl-1-methyl-4-(trifluoromethyl)-1H-pyrazolo[3,4-b]pyridin-6-yloxy)-N-(1-phenylethyl)acetamide] |  |  | 730 | 168
C[C@H](NC(=O)COc1cc(C(F)(F)F)c2c(C3CCCCC3)nn(C)c2n1)c1ccccc1 [Example 1.51, (S)-2-(3-cyclohexyl-1-methyl-4-(trifluoromethyl)-1H-pyrazolo[3,4-b]pyridin-6-yloxy)-N-(1-phenylethyl)acetamide] |  |  | 471 | 364
C[C@H](NC(=O)COc1cc(C(F)(F)F)c2c(C3CCCC3)nn(C)c2n1)c1ccccc1 [Example 1.52, (S)-2-(3-cyclopentyl-1-methyl-4-(trifluoromethyl)-1H-pyrazolo[3,4-b]pyridin-6-yloxy)-N-(1-phenylethyl)acetamide] |  |  | 1170 | 868
Cn1nc(-c2ccccc2)c2c(C(F)(F)F)cc(OCC(=O)NC3CC3)nc21 [Example 1.53, N-cyclopropyl-2-(1-methyl-3-phenyl-4-(trifluoromethyl)-1H-pyrazolo[3,4-b]pyridin-6-yloxy)acetamide] | 36 | 14 |  | 

From US8742106B2 (Novartis AG, priority 2009, dated 2014)
